A short description of experiment [1]: DRUGMATRIX: Sigma2 radioligand binding (ligand: [3H] Ifenprodil). The class given is cell membranes, Rattus norvegicus, Wistar, Brain, Membrane. As to conditions: Not Active = under 50% inhibition at 10 µM.
The target in the next experiment is T1, Cathepsin G (Homo sapiens, UniProt P08311).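 Further: inhibition of Cathepsin G enzyme activity, tested on an AMC-conjugated peptide substrate; in other assays of this panel Not Active means under 50% inhibition at 10 µM.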
T1 sequence (P08311 whole entry): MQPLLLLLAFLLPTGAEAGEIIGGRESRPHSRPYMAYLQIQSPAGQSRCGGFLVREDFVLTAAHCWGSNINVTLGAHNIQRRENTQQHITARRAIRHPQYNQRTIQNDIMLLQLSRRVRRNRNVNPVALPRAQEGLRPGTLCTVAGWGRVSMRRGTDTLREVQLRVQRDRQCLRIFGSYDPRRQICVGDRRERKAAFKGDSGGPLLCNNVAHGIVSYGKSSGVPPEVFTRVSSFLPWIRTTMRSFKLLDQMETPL
Description: biochemical. In kind it is tissue-based, Neutrophil.

Experiment [2] has as its target Aldo-keto reductase family 1 member B1 (Rattus norvegicus, UniProt P07943). Description: biochemical. The class given is tissue-based, Lens of camera-type eye.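 Further: inhibition of aldose reductase enzyme activity, measured with DL-glyceraldehyde as the substrate; in other assays of this panel Not Active means under 50% inhibition at 10 µM.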
Experiment [3] addresses T2, 5-hydroxytryptamine receptor 1A (Rattus norvegicus, UniProt P19327).
T2 sequence (P19327 whole entry): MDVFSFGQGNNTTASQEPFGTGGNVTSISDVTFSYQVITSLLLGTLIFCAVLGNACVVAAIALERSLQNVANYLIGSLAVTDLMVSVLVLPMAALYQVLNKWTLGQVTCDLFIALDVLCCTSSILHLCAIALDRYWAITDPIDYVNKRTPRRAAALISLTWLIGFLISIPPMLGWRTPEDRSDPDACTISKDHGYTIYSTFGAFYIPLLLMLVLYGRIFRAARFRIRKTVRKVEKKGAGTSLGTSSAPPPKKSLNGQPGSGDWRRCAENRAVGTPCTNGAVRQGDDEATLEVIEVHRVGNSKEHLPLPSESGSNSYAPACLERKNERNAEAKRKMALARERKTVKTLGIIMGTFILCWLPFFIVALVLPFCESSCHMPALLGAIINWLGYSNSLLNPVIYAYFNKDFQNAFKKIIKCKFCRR
In kind it is cell membranes, CHO-K1, Membrane.

Experiment [4] concerns the target T3, Vasoactive intestinal polypeptide receptor 1 (Homo sapiens, UniProt P32241). Further: in other assays of this panel Not Active means under 50% inhibition at 10 µM.
T3 sequence (P32241 whole entry): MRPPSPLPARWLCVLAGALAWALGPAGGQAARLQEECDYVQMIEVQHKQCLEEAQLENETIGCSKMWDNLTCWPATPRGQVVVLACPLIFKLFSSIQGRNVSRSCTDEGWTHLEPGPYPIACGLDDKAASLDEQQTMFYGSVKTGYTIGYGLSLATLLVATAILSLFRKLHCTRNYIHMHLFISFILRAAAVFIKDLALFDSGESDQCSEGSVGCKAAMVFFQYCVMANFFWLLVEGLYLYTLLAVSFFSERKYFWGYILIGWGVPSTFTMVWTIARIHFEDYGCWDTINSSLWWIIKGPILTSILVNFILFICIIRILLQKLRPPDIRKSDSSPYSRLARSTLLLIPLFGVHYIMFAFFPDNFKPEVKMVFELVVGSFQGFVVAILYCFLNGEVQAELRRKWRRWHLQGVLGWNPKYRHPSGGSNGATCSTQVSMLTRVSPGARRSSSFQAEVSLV
In kind it is cell membranes, Membrane. As to conditions: ht-29.

Experiment [5] is described as follows: DRUGMATRIX: Atrial Natriuretic Factor (ANF) radioligand binding (ligand: [125I] ANF (rat)). In kind it is cell membranes, Cavia porcellus, Dunkin-Hartley, Adrenal gland, Membrane. The settings on record: Not Active = under 50% inhibition at 10 µM.
Another experiment addresses Melanocortin receptor 4 (Homo sapiens, UniProt P32245). The class given is cell membranes, Membrane. As to conditions: hek293.

Melanocortin receptor 4, sequence (P32245 whole entry): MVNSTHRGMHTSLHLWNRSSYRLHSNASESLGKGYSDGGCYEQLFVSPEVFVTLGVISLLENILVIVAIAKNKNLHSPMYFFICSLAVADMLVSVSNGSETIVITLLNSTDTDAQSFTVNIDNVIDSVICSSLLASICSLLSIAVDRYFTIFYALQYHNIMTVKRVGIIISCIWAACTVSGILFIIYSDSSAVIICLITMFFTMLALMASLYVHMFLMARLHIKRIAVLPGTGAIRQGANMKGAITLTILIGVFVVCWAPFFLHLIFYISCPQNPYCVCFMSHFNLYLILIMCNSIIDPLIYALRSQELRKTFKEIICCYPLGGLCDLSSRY

As for `CC[C@H](C)[C@@H](CO[C@@H](Cc1ccccc1)C(=O)N[C@@H](CCS(C)(=O)=O)C(=O)OC(C)C)NC[C@@H](N)CS`, the IC50 entry (in experiment [1]; on Cathepsin G (neutrophil); in experiment [2]; in experiment [3] (cho-k1); in experiment [4]; in experiment [5]) was “Not Active” throughout. Further, the concentration for half-maximal inhibition (IC50) result against Melanocortin receptor 4 was “Not Active”. Moreover, the Ki result in experiment [1] and in experiment [5] was “Not Active” throughout.
With `Nc1nc(N)c2nc(-c3ccccc3)c(N)nc2n1`, the IC50 result in experiment [1] was “Not Active”; on Cathepsin G (read-out: IC50), 7.41 µM; in experiment [2], “Not Active”; in experiment [3] (cho-k1), “Not Active”; in experiment [4], “Not Active”; in experiment [5], “Not Active”. Also, the concentration for half-maximal inhibition (IC50) entry at Melanocortin receptor 4 was “Not Active”. Besides, the inhibition constant (Ki) result in experiment [1] and in experiment [5] was “Not Active” throughout.
Consider `CCN(CC)C(=S)SSC(=S)N(CC)CC`, for which the IC50 in experiment [1] (read-out: IC50) is 75.6 µM; on Cathepsin G (neutrophil), “Not Active”; in experiment [2] it was “Not Active”; in experiment [3] (cho-k1), “Not Active”; in experiment [4], “Not Active”; in experiment [5] it was “Not Active”. Also, at Melanocortin receptor 4, the IC50 entry was “Not Active”. The inhibition constant (Ki) in experiment [1] (read-out: Ki) was 46.5 µM; in experiment [5], “Not Active”.
For the compound `CN(C)CCC=C1c2ccccc2COc2ccccc21` [DOXEPIN], the concentration for half-maximal inhibition (IC50) result (on Cathepsin G (neutrophil); in experiment [2]; in experiment [4]; at Melanocortin receptor 4) was “Not Active” throughout.
In the case of `O=C(c1ccccc1)c1ccc2n1CCC2C(=O)O` (stereo not drawn) [KETOROLAC], the half-inhibitory concentration (IC50) result was “Not Active” in experiment [1]; “Not Active” against Cathepsin G (neutrophil); 6.11 µM in experiment [2] (read-out: IC50); “Not Active” in experiment [3] (cho-k1); “Not Active” in experiment [4]; “Not Active” in experiment [5]. Moreover, the IC50 result against Melanocortin receptor 4 was “Not Active”. Also, the Ki result in experiment [1] and in experiment [5] was “Not Active” throughout.
In the case of `CCOC(=O)C1=C(C)NC(C)=C(C(=O)OCC)C1c1ccccc1/C=C/C(=O)OC(C)(C)C` [LACIDIPINE], the IC50 entry (in experiment [1]; against Cathepsin G (neutrophil); in experiment [2]; in experiment [3] (cho-k1); in experiment [4]; in experiment [5]) was “Not Active” each time. Besides, the concentration for half-maximal inhibition (IC50) result on Melanocortin receptor 4 was “Not Active”. The inhibitory constant (Ki) result in experiment [1] and in experiment [5] was “Not Active” each time.
With `CC(O)C(=O)O` (stereo not drawn) [LACTIC ACID], the half-inhibitory concentration (IC50) result (in experiment [1]; against Cathepsin G (neutrophil); in experiment [2]; in experiment [3] (cho-k1); in experiment [4]; in experiment [5]) was “Not Active” in each case. Also, the IC50 result on Melanocortin receptor 4 is listed as “Not Active”. Besides, the Ki entry in experiment [1] and in experiment [5] was “Not Active” each time.
Turning to `CC(C)(C)NC[C@H](O)COc1cccc2c1CCCC2=O` [LEVOBUNOLOL], the concentration for half-maximal inhibition (IC50) result in experiment [1] was “Not Active”; against Cathepsin G (neutrophil) it was “Not Active”; in experiment [2] it was “Not Active”; in experiment [3] (read-out: IC50) it was 2.9 µM; in experiment [4], “Not Active”; in experiment [5], “Not Active”. Moreover, the IC50 entry on Melanocortin receptor 4 is recorded as “Not Active”. Further, the Ki entry in experiment [1] is “Not Active”; in experiment [3] (read-out: Ki), 1.66 µM; in experiment [5], “Not Active”.
With `CNCCCC12CCC(c3ccccc31)c1ccccc12` [MAPROTILINE], the IC50 entry (on Cathepsin G (neutrophil); in experiment [2]; in experiment [3] (cho-k1); in experiment [4]; against Melanocortin receptor 4) was “Not Active” each time.
For the compound `Cc1cc2c(s1)Nc1ccccc1N=C2N1CCN(C)CC1` [OLANZAPINE], the IC50 entry (on Cathepsin G (neutrophil); in experiment [2]; in experiment [3] (cho-k1); in experiment [4]; against Melanocortin receptor 4) was “Not Active” in each case.

Values taken from ChEMBL document CHEMBL1909046, “DrugMatrix in vitro pharmacology data”.
